{
  "source": "paper PMC4710668",
  "about": "“Bioactivation of food genotoxicants 5-hydroxymethylfurfural and furfuryl alcohol by sulfotransferases from human, mouse and rat: a comparative study” (Archives of Toxicology, 2014)",
  "assay_in_all_cases": "FFA sulfoconjugation assay (N6-MF-A formation with adenosine as scavenger)",
  "assay_type_in_all_cases": "biochemical",
  "key": {"[1]": {"target": "T1, hSULT1A1 (Homo sapiens, UniProt P50225)", "T1 construct": "made in house; host or cells: Salmonella typhimurium TA1538 (cytosolic fraction, not purified)", "T1 sequence (P50225 whole entry)": "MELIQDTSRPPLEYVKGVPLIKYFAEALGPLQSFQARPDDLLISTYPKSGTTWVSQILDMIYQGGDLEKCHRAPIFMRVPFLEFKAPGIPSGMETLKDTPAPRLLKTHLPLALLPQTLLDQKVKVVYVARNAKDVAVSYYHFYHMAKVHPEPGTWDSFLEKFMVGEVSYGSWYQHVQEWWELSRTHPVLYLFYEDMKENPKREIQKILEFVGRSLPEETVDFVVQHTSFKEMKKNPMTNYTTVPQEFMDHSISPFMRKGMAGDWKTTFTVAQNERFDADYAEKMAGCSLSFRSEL", "experimental": "(§1) Cytosolic fractions containing individual SULT forms were prepared from transgenic S. typhimurium TA1538. Table S1 in the Supplementary Material provides a summary of the thirty SULTs used in the current study together with references describing the cloning of the respective S. typhimurium TA1538 strains. The expressed SULT forms are denoted with the prefixes h, m and r for human, mouse and rat enzymes, respectively. Bacteria were grown in Luria Broth medium containing ampicillin (100 µg/ml) by stirring for 8 h at 200 revolutions/min at 37 °C. The bacterial suspensions were centrifuged at 5,000 g for 10 min. The sediments were washed twice with 25 ml of 10 mM potassium phosphate buffer (pH 7.4)/50 mM potassium chloride (KCP buffer) and centrifuged again. The pellets were taken up in 800 µl KCP buffer and sonicated thrice for 15 s with 30 s pauses in between. The soluble fraction was attained by centrifuging for 1 h at 100,000 g. The supernatants (in the following termed cytosolic preparations) were frozen at −80 °C. The protein concentrations were determined according to a bicinchoninic acid (BCA) assay protocol. The SULT concentrations in the cytosolic preparations were estimated after electrophoretic separation and immunodetection using inclusion bodies of different SULT forms as standards (Teubner et al. [2007]). The preparation of SULT inclusion bodies and the immunodetection of SULTs is described in the Supplementary Material, which also contains a representative immunoblot of different amounts of rSult1a1standard and a cytosolic preparation of S. typhimurium expressing rSult1a1 (Fig. S1).\n(§2) The reaction mixtures were prepared as described for HMF. In addition, they contained 10 mM adenosine as a nucleophilic scavenger. Following incubation for 20 min at 37 °C, sulfoconjugation reactions were stopped by adding 100 µl cold methanol containing 175 fmol of [^15N5]N ^6-MF-A as the internal standard, mixed and centrifuged at 15,000 g for 10 min. The clear supernatants were subjected to UPLC-MS/MS analyses. Incubations were performed as quadruplicates. At higher concentrations, FFA reacts spontaneously with adenosine at low, but detectable, levels. To correct for the SULT-independent adduct formation, mixtures with SULT-deficient cytosols were carried along simultaneously in duplicate. Controls were subtracted from the experimental samples.\n(§3) The ribonucleoside adduct N ^6-((furan-2-yl)methyl)-adenosine (N ^6-MF-A) was analyzed by isotope-dilution UPLC-MS/MS with the same system described above using a HSS T3 column (1.8 µm, 2.1 × 100 mm, Waters). Samples of 8 µl were eluted with 10 mM ammonium bicarbonate buffer, pH 8.0 (A) and methanol (B) using an 6-min gradient from 98 % solvent A to 15 % solvent A at 0.35 ml/min flow rate (Yin et al. [2013]). The electrospray interface of the mass spectrometer operated in the positive ion mode. The fragmentations of N ^6-MF-A into the aglycone cation [N ^6-((furan-2-yl)methyl)-adenine-H]^+ (m/z = 348.1 → 216.1), the cleavage of the 2-methylfuranyl cation (m/z = 348.1 → 81.0) and the release of [N ^6-methyl-adenine-H]^+ (m/z = 348.1 → 148.0) were monitored together with the corresponding fragmentations of the isotope-labeled internal standard [^15N5]N ^6-MF-A for the formation of the aglycone (m/z = 353.1 → 221.1), the 2-methylfuran cation (m/z = 353.1 → 81.0) and ^15N5-labeled N ^6-methyl-adenine (m/z = 353.1 → 153.0). The N ^6-MF-A content of the incubation mixture was calculated from the ratio of peak areas resulting from the total ion current of all three MRM signals of the analyte. For the fragmentation of N ^6-MF-A ([^15N5]N ^6-MF-A), collision energies were 20, 25 and 35 eV for the transitions m/z = 348.1 → 216.1 (m/z = 353.1 → 221.1), m/z = 348.1 → 148.0 (m/z = 353.1 → 153.0) and m/z = 348.1 → 81.0 (m/z = 353.1 → 81.0), respectively. […]"}, "[2]": {"target": "T2, hSULT1A3 (Homo sapiens, UniProt P0DMM9)", "T2 construct": "made in house; host or cells: Salmonella typhimurium TA1538 (cytosolic fraction, not purified)", "T2 sequence (P0DMM9 whole entry)": "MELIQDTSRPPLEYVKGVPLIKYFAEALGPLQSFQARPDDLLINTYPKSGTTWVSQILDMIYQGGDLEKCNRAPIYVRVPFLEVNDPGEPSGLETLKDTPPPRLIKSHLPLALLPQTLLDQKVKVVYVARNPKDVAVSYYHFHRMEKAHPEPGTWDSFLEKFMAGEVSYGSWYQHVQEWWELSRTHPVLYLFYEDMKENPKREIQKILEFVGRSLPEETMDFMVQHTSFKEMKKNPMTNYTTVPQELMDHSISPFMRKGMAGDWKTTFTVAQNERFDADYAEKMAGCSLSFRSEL", "experimental": "as §1, §2, §3"}, "[3]": {"target": "T3, hSULT4A1 (Homo sapiens, UniProt Q9BR01)", "T3 construct": "made in house; host or cells: Salmonella typhimurium TA1538 (cytosolic fraction, not purified)", "T3 sequence (Q9BR01 1-284)": "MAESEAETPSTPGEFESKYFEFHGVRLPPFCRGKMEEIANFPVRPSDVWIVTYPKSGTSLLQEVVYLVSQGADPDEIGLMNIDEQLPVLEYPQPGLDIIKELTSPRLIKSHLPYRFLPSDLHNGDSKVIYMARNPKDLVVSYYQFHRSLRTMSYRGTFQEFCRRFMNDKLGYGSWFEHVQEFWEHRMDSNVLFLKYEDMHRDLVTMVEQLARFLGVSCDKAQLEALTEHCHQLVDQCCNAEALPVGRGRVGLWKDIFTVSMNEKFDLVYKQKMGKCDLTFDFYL", "experimental": "as §1, §2, §3"}, "[4]": {"target": "T4, mSult1a1 (Mus musculus, UniProt P52840)", "T4 construct": "made in house; host or cells: Salmonella typhimurium TA1538 (cytosolic fraction, enzyme not purified)", "T4 sequence (P52840 whole entry)": "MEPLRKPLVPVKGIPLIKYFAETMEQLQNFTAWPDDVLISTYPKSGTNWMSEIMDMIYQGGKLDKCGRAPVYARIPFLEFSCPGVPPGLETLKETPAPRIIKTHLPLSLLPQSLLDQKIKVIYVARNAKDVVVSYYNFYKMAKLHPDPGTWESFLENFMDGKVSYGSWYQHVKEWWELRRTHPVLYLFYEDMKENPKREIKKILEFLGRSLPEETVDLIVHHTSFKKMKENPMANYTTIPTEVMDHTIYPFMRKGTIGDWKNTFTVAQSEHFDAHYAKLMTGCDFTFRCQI", "experimental": "as §1, §2, §3"}, "[5]": {"target": "T5, mSult2b1b (Mus musculus, UniProt O35400)", "T5 construct": "made in house; host or cells: Salmonella typhimurium TA1538 (cytosolic fraction, enzyme not purified)", "T5 sequence (O35400 1-338)": "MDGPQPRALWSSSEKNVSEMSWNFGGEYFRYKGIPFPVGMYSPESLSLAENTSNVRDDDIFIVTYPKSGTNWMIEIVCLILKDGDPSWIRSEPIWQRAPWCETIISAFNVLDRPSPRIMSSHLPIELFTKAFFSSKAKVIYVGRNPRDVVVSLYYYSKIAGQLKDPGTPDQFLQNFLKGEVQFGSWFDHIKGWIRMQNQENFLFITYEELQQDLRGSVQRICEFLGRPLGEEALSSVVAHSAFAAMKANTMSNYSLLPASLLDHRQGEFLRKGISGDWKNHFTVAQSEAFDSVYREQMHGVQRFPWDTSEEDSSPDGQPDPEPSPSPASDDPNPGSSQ", "experimental": "as §1, §2, §3"}, "[6]": {"target": "T6, rSult1c1 (Rattus norvegicus, UniProt P50237)", "T6 construct": "made in house; host or cells: Salmonella typhimurium TA1538 (cytosolic fraction, enzyme not purified)", "T6 sequence (P50237 whole entry)": "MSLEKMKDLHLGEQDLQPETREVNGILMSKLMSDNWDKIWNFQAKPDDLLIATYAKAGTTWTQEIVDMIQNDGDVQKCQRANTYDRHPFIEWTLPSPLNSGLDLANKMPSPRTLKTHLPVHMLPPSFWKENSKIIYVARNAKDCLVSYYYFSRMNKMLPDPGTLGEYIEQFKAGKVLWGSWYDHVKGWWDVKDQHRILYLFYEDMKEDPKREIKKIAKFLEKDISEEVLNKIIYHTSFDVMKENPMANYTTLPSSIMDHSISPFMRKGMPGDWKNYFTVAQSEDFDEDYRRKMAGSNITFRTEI", "experimental": "as §1, §2, §3"}, "[7]": {"conditions": "1 mM FFA, corrected by actual SULT concentration in the cytosolic preparation"}},
  "note": "“And” between values parts separate entries of the source, which are not always exact repeats. Equal entries are not always repeated.",
  "data": [
    {"smiles": "OCc1ccco1", "note": "[FFA, furfuryl alcohol]", "values": [
      {"measurement": "Rate of N6-MF-A formation", "setting": "[1]; 0.1 mM FFA", "result": "73.5 ± 1.1", "unit": "fmol N ^6-MF-A/mg/min"},
      {"measurement": "Rate of N6-MF-A formation", "setting": "[1]; 1 mM FFA", "result": "575 ± 2", "unit": "fmol N ^6-MF-A/mg/min"},
      {"measurement": "Rate of N6-MF-A formation (corr.)", "setting": "[1]; [7]", "result": "57,500 fmol N ^6-MF-A/mg/min and 57,500 ± 200 fmol N ^6-MF-A/mg/min"},
      {"measurement": "ratio of N6-MF-A formation rate, hSULT1A1 vs hSULT1A2, 1A3, 1B1, 1C3 and 2A1", "setting": "[1]; 1 mM FFA, corrected rates", "result": "11- to 30 fold"},
      {"measurement": "Rate of N6-MF-A formation", "setting": "[1]; 10 mM FFA", "result": "931 ± 5", "unit": "fmol N ^6-MF-A/mg/min"},
      {"measurement": "Rate of N6-MF-A formation", "setting": "[2]; 1 mM FFA", "result": "27.3 ± 0.5", "unit": "fmol N ^6-MF-A/mg/min"},
      {"measurement": "Rate of N6-MF-A formation (corr.)", "setting": "[2]; [7]", "result": "1,950 ± 30 fmol N ^6-MF-A/mg/min"},
      {"measurement": "Rate of N6-MF-A formation", "setting": "[2]; 10 mM FFA", "result": "226 ± 3", "unit": "fmol N ^6-MF-A/mg/min"},
      {"measurement": "Rate of N6-MF-A formation", "setting": "[3]; 0.1 mM FFA", "result": "<18", "unit": "fmol N ^6-MF-A/mg/min"},
      {"measurement": "Rate of N6-MF-A formation", "setting": "[3]; 1 mM FFA", "result": "<20", "unit": "fmol N ^6-MF-A/mg/min"},
      {"measurement": "Rate of N6-MF-A formation", "setting": "[3]; 10 mM FFA", "result": "<44", "unit": "fmol N ^6-MF-A/mg/min"},
      {"measurement": "Rate of N6-MF-A formation", "setting": "[4]; 0.1 mM FFA", "result": "361 ± 4", "unit": "fmol N ^6-MF-A/mg/min"},
      {"measurement": "Rate of N6-MF-A formation", "setting": "[4]; 1 mM FFA", "result": "2,590 ± 20 fmol N ^6-MF-A/mg/min"},
      {"measurement": "Rate of N6-MF-A formation (corr.)", "setting": "[4]; [7]", "result": "61,700 fmol N ^6-MF-A/mg/min and 61,700 ± 400 fmol N ^6-MF-A/mg/min"},
      {"measurement": "ratio of N6-MF-A formation rate, mSult1a1 vs mSult1d1", "setting": "[4]; 1 mM FFA, corrected rates", "result": "about 14 fold"},
      {"measurement": "Rate of N6-MF-A formation", "setting": "[4]; 10 mM FFA", "result": "5,140 ± 60 fmol N ^6-MF-A/mg/min"},
      {"measurement": "Rate of N6-MF-A formation", "setting": "[5]; 0.1 mM FFA", "result": "<18", "unit": "fmol N ^6-MF-A/mg/min"},
      {"measurement": "Rate of N6-MF-A formation", "setting": "[5]; 1 mM FFA", "result": "<20", "unit": "fmol N ^6-MF-A/mg/min"},
      {"measurement": "Rate of N6-MF-A formation", "setting": "[5]; 10 mM FFA", "result": "<44", "unit": "fmol N ^6-MF-A/mg/min"},
      {"measurement": "Rate of N6-MF-A formation", "setting": "[6]; 0.1 mM FFA", "result": "<18", "unit": "fmol N ^6-MF-A/mg/min"},
      {"measurement": "Rate of N6-MF-A formation", "setting": "[6]; 1 mM FFA", "result": "97.8 ± 2.3", "unit": "fmol N ^6-MF-A/mg/min"},
      {"measurement": "Rate of N6-MF-A formation", "setting": "[6]; 10 mM FFA", "result": "492 ± 13", "unit": "fmol N ^6-MF-A/mg/min"}
    ]}
  ]
}
